{"source": "paper PMC4997609", "about": "“Wedelolactone enhances osteoblastogenesis by regulating Wnt/β-catenin signaling pathway but suppresses osteoclastogenesis by NF-κB/c-fos/NFATc1 pathway” (Scientific Reports, 2016)", "biological_target": "T1, GSK3β (Homo sapiens, UniProt P49841)", "T1 construct": "gene GSK3B", "T1 sequence (P49841 whole entry)": "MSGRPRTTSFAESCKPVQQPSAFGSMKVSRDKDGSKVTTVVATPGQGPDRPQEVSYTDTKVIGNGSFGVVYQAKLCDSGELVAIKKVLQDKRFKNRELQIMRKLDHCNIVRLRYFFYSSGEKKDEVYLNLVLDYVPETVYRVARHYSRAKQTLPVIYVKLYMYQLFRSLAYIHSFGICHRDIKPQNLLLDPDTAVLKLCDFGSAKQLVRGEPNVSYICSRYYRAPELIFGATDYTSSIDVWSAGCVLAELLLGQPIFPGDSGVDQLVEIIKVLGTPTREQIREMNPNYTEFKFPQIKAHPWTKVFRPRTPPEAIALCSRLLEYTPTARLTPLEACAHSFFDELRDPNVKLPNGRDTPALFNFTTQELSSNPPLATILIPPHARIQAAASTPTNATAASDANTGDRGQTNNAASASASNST", "experiment": "ADP-Glo kinase assay with GSK3β, GSK3β substrate and […] ATP", "assay_type": "biochemical", "data": [{"smiles": "COc1cc(O)c2c(c1)oc(=O)c1c3cc(O)c(O)cc3oc21", "note": "[wedelolactone]", "values": [{"measurement": "IC50", "value": 21.7, "unit": "µM"}]}]}
